No end group written: not given here.
What was measured:
[1] = system: hiPSC derived NSC; assay: hiPSC derived NSC in 3D matrix with coupled IKVAV; type: cell-based, human; conditions: peptide coupled within a 3D matrix, preliminary data
[2] = system: mouse embryonic stem cells; assay: Differentiation of mouse embryonic stem cells on IKVAV concentration gradient PEG hydrogels; type: cell-based; conditions: 3 days of differentiation

IKVAV (also: tethered in PEG hydrogel)
survival and neurite extension [1]: can support survival and neurite extension | toxicity ([2]; high concentration of tethered peptide): toxicity evident | neurite extension ([2]; low concentration of tethered peptide): lack of neurite extension | effect on cellular survival, neurite extension and differentiation ([2]; tethered peptide concentration gradient in PEG hydrogels, β3 tubulin staining): concentration dependent effect
